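Values below derive from 48-hour exposures of cells grown in 96-well plates, with endpoints linearly interpolated between the two concentrations bracketing the appropriate inhibition level. Definition used: TGI = concentration required for complete inhibition of growth.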
What follows are molecules tested on SF-295 CNS (assay: growth of human tumour cells (NCI), 48 h).

Structure (SMILES) | TGI [µM]
Nc1nc(Cl)cc(OCC2(CO)CC=CC2)n1 | > 100
CCOC(=O)CCCSCCCC(=O)CCCSCCCC(=O)OCC | > 100
CC(C)=C[C@H]1C[C@H](C)[C@H]2CC[C@H](C)c3c2c1c(C)c1ncoc31 | 31.2
O=C1/C(=C\c2ccc(Cl)cc2Cl)Sc2scc(-c3ccc(O)c(O)c3)[n+]21 | 49.2
CCOC(=O)C(=[N+]=[N-])C(=O)CN1C(=O)c2ccccc2C1=O | > 100

The molecules below were run on SW-620 colon (assay: growth of human tumour cells (NCI), 48 h).

Structure (SMILES) | TGI [µM]
CCCCCCc1cc2cc(-c3cn4ccsc4n3)c(=O)oc2cc1O | > 100
COC(=O)[C@]1(C)CCC[C@@]2(C)C1CC[C@@]13C=C(C(C)C)[C@@H](CC1=O)CC23 (stereo partly specified) | 83.6
Cc1nn(C(=O)Cc2ccccc2)c2c1C(c1ccccc1)SC(N)=N2 (stereo unspecified) | > 100
CCNC(=O)c1ccc(C)c(N=NN(C)C)c1 | > 100
C=CCNC(=S)N/C=C(\C#N)C(N)=O | > 100
COc1ccc(C2=CC(C(C)=C(C(N)=O)C(N)=O)C=C(c3ccc(Br)cc3)C2)c(OC)c1 (stereo unspecified) | > 100
O=C1c2sc(-c3ccc(Cl)cc3)cc2-n2cccc21 | > 100
CC(C)C(NC(=O)Oc1ccccc1)C(=O)NC1c2c(Br)sc(Br)c2C(=O)C1O (stereo unspecified) | 11.1
COCCOCOC(CCCCO)c1cc(C)c(O[Si](C)(C)C(C)(C)C)c(C)c1 (stereo unspecified) | 21.1
CSC(=O)c1sc(SC)[n+](-c2ccccc2)c1O | 42.5
CC1=NN(c2nc(N)nc(COc3ccc(N)cc3)n2)C(C)(C)C1 | > 100
Cc1cc(OC(=O)Nc2cccc3ccccc23)c(C(C)C)cc1C(=S)Nc1ccccc1 | 43.3
CC(=O)OCCOCNC(=S)N/N=C/c1ccc([N+](=O)[O-])o1 | > 100
COc1cc2c(/C=C3/C(=O)Nc4cccc(Cl)c43)c(Cl)[nH]c2cc1C | 5.25
Nc1ncc2c(n1)-c1ccccc1OC2N1CCCCC1 (stereo unspecified) | > 100
COc1cc(C2C(Cl)C(=O)N2n2cnc3ccccc3c2=O)ccc1O (stereo unspecified) | > 100
C[C@]12c3c4cc(NC(=O)C(=O)NCc5ccc(-c6ccccn6)nc5)cc3Oc3cc(NC(=O)C(=O)NCc5ccc(-c6ccccn6)nc5)cc(c31)OC1C=C(NC(=O)C(=O)NCc3ccc(-c5ccccn5)nc3)C=C(O4)C12 (stereo partly specified) | > 100
COc1ccc(C2Oc3cc(OC)c(OC)cc3C2CCl)cc1OC (stereo unspecified) | > 100
COC(=O)c1cccc(C)c1C1CN=NC12Cc1cc(C)cc(C)c1C2=O (stereo unspecified) | > 100
O=C1c2ccccc2-n2nnnc2C2CSCN12 (stereo unspecified) | > 100
COc1ccc(NC(=S)c2ccc(CN3CCCCC3)s2)cc1 | 42.4
N#Cc1cccc(-n2[nH]c(=O)ccc2=O)c1 | > 100
Cc1ccc(S[C@@H](C)[C@@](O)(CF)CN(Cc2ccccc2)C(=O)C(F)(F)F)cc1 | 75.2
CCN(CC)CCCNC(=O)c1cc(-c2nccn2C)nc2ccccc12 | > 100
O=C1/C(=C/c2ccco2)NC(=S)N1CN1CCCCC1 | > 100
Nc1nc(Cl)cc(OCC2(CO)CC=CC2)n1 | > 100
CCOC(=O)CCCSCCCC(=O)CCCSCCCC(=O)OCC | > 100
CC(C)=C[C@H]1C[C@H](C)[C@H]2CC[C@H](C)c3c2c1c(C)c1ncoc31 | 36
O=C1/C(=C\c2ccc(Cl)cc2Cl)Sc2scc(-c3ccc(O)c(O)c3)[n+]21 | 29.7
CCOC(=O)C(=[N+]=[N-])C(=O)CN1C(=O)c2ccccc2C1=O | > 100

What follows are molecules tested on SNB-75 CNS (assay: growth of human tumour cells (NCI), 48 h).

Structure (SMILES) | TGI [µM]
CCCCCCc1cc2cc(-c3cn4ccsc4n3)c(=O)oc2cc1O | > 92.7
COC(=O)[C@]1(C)CCC[C@@]2(C)C1CC[C@@]13C=C(C(C)C)[C@@H](CC1=O)CC23 (stereo partly specified) | > 100
Cc1nn(C(=O)Cc2ccccc2)c2c1C(c1ccccc1)SC(N)=N2 (stereo unspecified) | > 100
C=CCNC(=S)N/C=C(\C#N)C(N)=O | > 100
CCOC(=O)c1cc(-c2ccc(OC)cc2)c([N+](=O)[O-])n1C | > 10
COc1ccc(C2=CC(C(C)=C(C(N)=O)C(N)=O)C=C(c3ccc(Br)cc3)C2)c(OC)c1 (stereo unspecified) | > 100
O=C1c2sc(-c3ccc(Cl)cc3)cc2-n2cccc21 | > 100
CC(C)C(NC(=O)Oc1ccccc1)C(=O)NC1c2c(Br)sc(Br)c2C(=O)C1O (stereo unspecified) | > 25
COCCOCOC(CCCCO)c1cc(C)c(O[Si](C)(C)C(C)(C)C)c(C)c1 (stereo unspecified) | 23.9
CSC(=O)c1sc(SC)[n+](-c2ccccc2)c1O | 27.2
CC1=NN(c2nc(N)nc(COc3ccc(N)cc3)n2)C(C)(C)C1 | > 100
CC(=O)OCCOCNC(=S)N/N=C/c1ccc([N+](=O)[O-])o1 | > 100
COc1cc2c(/C=C3/C(=O)Nc4cccc(Cl)c43)c(Cl)[nH]c2cc1C | 4.03
Nc1ncc2c(n1)-c1ccccc1OC2N1CCCCC1 (stereo unspecified) | > 100
COc1cc(C2C(Cl)C(=O)N2n2cnc3ccccc3c2=O)ccc1O (stereo unspecified) | > 100
C[C@]12c3c4cc(NC(=O)C(=O)NCc5ccc(-c6ccccn6)nc5)cc3Oc3cc(NC(=O)C(=O)NCc5ccc(-c6ccccn6)nc5)cc(c31)OC1C=C(NC(=O)C(=O)NCc3ccc(-c5ccccn5)nc3)C=C(O4)C12 (stereo partly specified) | 76.3
COc1ccc(C2Oc3cc(OC)c(OC)cc3C2CCl)cc1OC (stereo unspecified) | > 100
COC(=O)c1cccc(C)c1C1CN=NC12Cc1cc(C)cc(C)c1C2=O (stereo unspecified) | 83.1
COc1cc(OCCN(C)C)c2[nH]c(C(=O)N3CC(CCl)c4ccc(N)cc43)cc2c1 (stereo unspecified) | 0.565
O=C1c2ccccc2-n2nnnc2C2CSCN12 (stereo unspecified) | > 100
O=c1[nH]c(=O)c2c3n(cc2[nH]1)CCCCC3 | > 100

— PubChem BioAssay (NCI)
